# Measured values from patent US9476099B2 (TRUSTEES OF DARTMOUTH COLLEGE, priority 2012, dated 2016).
# Tested on: gene promoters in NT2/D1-R1 control and DNMT3B knockdown cells
# Test: Genome-wide promoter methylation analysis, HumanMethylation27 BeadChip (Table 15)
# Format: cell-based, human
# Settings: sh-ctrl + 5aza
# Experimental: DNA methylation analysis was performed in samples in triplicate using the […] […] assay with the HumanMethylation27 BeadChip ([…]) and the BeadChip was scanned on the BeadArray Reader ([…]), according to the manufacturer's instructions. Raw data was normalized and analyzed with Genome Studio software ([…]). The HumanMethylation27 BeadChip assays 27,578 CpGs covering more than 14,000 genes, mostly from promoter regions. […] Hierarchical clustering was performed as stated above. HumanMethylation27 BeadChip data and gene expression microarray data were submitted to NCBI GEO.
structure (smiles),measurement,setting,value
Nc1ncn([C@H]2C[C@H](O)[C@@H](CO)O2)c(=O)n1 [5aza],SERPING1 cg12783776 promoter methylation Mean,,0.601
same,SFRS16 cg19317638 promoter methylation Mean,,0.560
same,SFXN3 cg04880063 promoter methylation Mean,,0.170
same,SH3BGRL2 cg03080985 promoter methylation Mean,,0.398
same,SHH cg25167838 promoter methylation Mean,,0.175
same,SKIP cg04072323 promoter methylation Mean,,0.432
same,SLC30A2 cg05674944 promoter methylation Mean,,0.658
same,SMCP cg09542291 promoter methylation Mean,,0.705
same,SNX9 cg26845300 promoter methylation Mean,,0.985
same,SOX17 cg21226224 promoter methylation Mean,,0.858
same,SPRR1B cg24884084 promoter methylation Mean,,0.488
same,SSH1 cg11747499 promoter methylation Mean,,0.529
same,SSTR1 cg27590397 promoter methylation Mean,,1.209
same,TAC1 cg07550362 promoter methylation Mean,,0.798
same,TADA3L cg09279263 promoter methylation Mean,,0.445
same,TERT cg02545192 promoter methylation Mean,,0.547
same,TNFSF10 cg16555388 promoter methylation Mean,,0.687
same,TNRC4 cg26093148 promoter methylation Mean,,0.866
same,TNRC15 cg07230446 promoter methylation Mean,,0.425
same,TRAF3 cg24165760 promoter methylation Mean,,0.878
same,TRIM2 cg12793610 promoter methylation Mean,,0.815
same,TRIM36 cg10693071 promoter methylation Mean,,0.822
same,TRPM3 cg20555507 promoter methylation Mean,,0.413
same,UNC5D cg00297600 promoter methylation Mean,,0.612
same,WDR13 cg25053301 promoter methylation Mean,,0.317
same,ZFHX1B cg15377518 promoter methylation Mean,,0.680
same,ZNF222 cg09757277 promoter methylation Mean,,0.431
same,cg07512517 promoter methylation Mean,,0.619
same,"Mean promoter methylation, ABCA3 cg02331561",NT2/D1-R1 control cells,0.189
same,"Mean promoter methylation, ABLIM3 cg05026186",NT2/D1-R1 control cells,0.365
same,"Mean promoter methylation, ACTL6B cg08572611",NT2/D1-R1 control cells,0.210
same,"Mean promoter methylation, ANKRD46 cg23737055",NT2/D1-R1 control cells,0.329
same,"Mean promoter methylation, ARNT2 cg17788682",NT2/D1-R1 control cells,0.212
same,"Mean promoter methylation, B4GALNT3 cg05769161",NT2/D1-R1 control cells,0.577
same,"Mean promoter methylation, BTBD1 cg16958189",NT2/D1-R1 control cells,0.392
same,"Mean promoter methylation, C1RL cg22593785",NT2/D1-R1 control cells,0.347
same,"Mean promoter methylation, C10orf10 cg17186163",NT2/D1-R1 control cells,0.371
same,"Mean promoter methylation, C10orf72 cg02569613",NT2/D1-R1 control cells,0.553
same,"Mean promoter methylation, C12orf34 cg01335367",NT2/D1-R1 control cells,0.987
same,"Mean promoter methylation, C17orf40 cg18042079",NT2/D1-R1 control cells,0.207
same,"Mean promoter methylation, C19orf30 cg07456645",NT2/D1-R1 control cells,0.552
same,"Mean promoter methylation, C20orf29 cg09158909",NT2/D1-R1 control cells,0.322
same,"Mean promoter methylation, C22orf9 cg11221513",NT2/D1-R1 control cells,0.402
same,"Mean promoter methylation, CACNA1G cg18454685",NT2/D1-R1 control cells,0.587
same,"Mean promoter methylation, CAMKK2 cg01369981",NT2/D1-R1 control cells,0.344
same,"Mean promoter methylation, CART cg23300372",NT2/D1-R1 control cells,0.445
same,"Mean promoter methylation, CCKBR cg13346411",NT2/D1-R1 control cells,0.411
same,"Mean promoter methylation, CDC42EP1 cg13951472",NT2/D1-R1 control cells,0.342
same,"Mean promoter methylation, CDKN2A cg10895543",NT2/D1-R1 control cells,0.249
same,"Mean promoter methylation, CHST8 cg24739326",NT2/D1-R1 control cells,0.660
same,"Mean promoter methylation, CPSF1 cg20326853",NT2/D1-R1 control cells,0.408
same,"Mean promoter methylation, CSMD1 cg22619018",NT2/D1-R1 control cells,0.365
same,"Mean promoter methylation, DCTN3 cg22579849",NT2/D1-R1 control cells,0.613
same,"Mean promoter methylation, DDX42 cg05797656",NT2/D1-R1 control cells,0.226
same,"Mean promoter methylation, DGKD cg25506396",NT2/D1-R1 control cells,0.238
same,"Mean promoter methylation, DGKI cg06277657",NT2/D1-R1 control cells,0.365
same,"Mean promoter methylation, DKK2 cg01404615",NT2/D1-R1 control cells,0.819
same,"Mean promoter methylation, DUSP8 cg02271621",NT2/D1-R1 control cells,0.296
same,"Mean promoter methylation, EHD2 cg12603043",NT2/D1-R1 control cells,0.398
same,"Mean promoter methylation, ELK1 cg21860846",NT2/D1-R1 control cells,0.343
same,"Mean promoter methylation, EMP3 cg01795122",NT2/D1-R1 control cells,0.187
same,"Mean promoter methylation, EYA4 cg01805282",NT2/D1-R1 control cells,0.360
same,"Mean promoter methylation, FAM70B cg15350194",NT2/D1-R1 control cells,0.396
same,"Mean promoter methylation, FAM73B cg00729541",NT2/D1-R1 control cells,0.365
same,"Mean promoter methylation, FCHSD2 cg17114257",NT2/D1-R1 control cells,0.423
same,"Mean promoter methylation, FLJ20273 cg01704534",NT2/D1-R1 control cells,0.410
same,"Mean promoter methylation, FLJ20273 cg15967525",NT2/D1-R1 control cells,0.759
same,"Mean promoter methylation, FLJ42486 cg03734874",NT2/D1-R1 control cells,0.711
same,"Mean promoter methylation, GAB3 cg12938998",NT2/D1-R1 control cells,0.347
